Key:
streptavidin = streptavidin (Streptomyces avidinii, UniProt P22629); settings: association constant; cited from earlier work
SAPE [1] = target: T1, SAPE (Streptomyces avidinii, UniProt P22629); assay: stability of DMT protected biotin against SAPE staining after 3 hour ligation (FIG. 13); settings: array probes after 3 hours ligation reaction, no acid treatment
SAPE [2] = target: T1, SAPE; assay: displacement of SAPE from desthiobiotin by biotin solution and re-staining (FIG. 15); type: binding; settings: 1 mM biotin solution, then restaining with SAPE
Method: The next step was to displace the streptavidin-phycoerythrin conjugate bound to the desthiobiotin of the ligated A/T probes. This was done by washing the array with solution biotin (1 mM) in NaCl (150 mM) for 4 hours at room temperature. The displaced streptavidin-phycoerythrin conjugate previous bound to the desthiobiotinylated probes was then removed.
FIGS. 15(A)-15(C) contain images of sub-regions with sets of probes to test the effectiveness of binding and displacement of desthiobiotin with biotin. Specifically, the probe sets within the images are ligated with desthiobiotin labeled probes. […] Washing was also performed to remove the displaced biotin-SAPE conjugate. FIG. 15(C) contains an image after subsequent restraining with SAPE.

Chain of streptavidin (P22629 25-183, species assumed): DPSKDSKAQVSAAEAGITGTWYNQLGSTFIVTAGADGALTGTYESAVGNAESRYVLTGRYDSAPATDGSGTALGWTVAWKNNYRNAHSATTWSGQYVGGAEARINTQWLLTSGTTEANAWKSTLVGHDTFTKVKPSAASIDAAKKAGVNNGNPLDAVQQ
T1 sequence (P22629 25-183): as the sequence (P22629 25-183, species assumed) above

| SMILES | binding affinity with streptavidin (streptavidin) | intensity after SAPE staining (SAPE [1]) | displacement of SAPE stain and re-staining (SAPE [2]) |
| --- | --- | --- | --- |
| O=C(O)CCCC[C@@H]1SC[C@@H]2NC(=O)N[C@@H]21 [biotin] | 1e+15 M⁻¹ | extremely strong | – |
| C[C@@H]1NC(=O)N[C@@H]1CCCCCC(=O)O [desthiobiotin] | 5e+13 M⁻¹ | – | effectively displace and remove a labeling stain from desthiobiotin |

— patent publication US8835125B2, “Methods and compositions for selective labeling of different biotinylated targets within multicolor or multilabel assays” (Affymetrix, Inc., priority 2011, dated 2014)
